Reference: patent US10064909B2, “Compositions and methods for chronic use of a weight-gaining compound” (priority 2015, dated 2018)
“Also recorded” adds a separate entry of the source.

How the values were obtained:
[1] = Safety of capromorelin administered daily to Beagle dogs for one year; format: in vivo; conditions: for high dose relative to proposed clinical dose for dogs (safety margin): 52.4 mg/kg vs proposed clinical dose; for high dose relative to proposed clinical dose for dogs (safety margin) / tolerability / toxicity: L-tartrate; for tolerability / toxicity: oral gavage once daily, doses up to 52.4 mg/kg
Method: (§1) This study evaluated the safety of capromorelin in dogs. Thirty-two Beagle dogs were randomly assigned to four groups (n=4/sex/group) and received 0 mg/kg, 0.39 mg/kg, 9.2 mg/kg, or 52.4 mg/kg capromorelin (with the dose calculated per the tartrate salt) once daily by oral gavage for 12 consecutive months. Safety parameters were evaluated including clinical signs, food consumption, bodyweight, clinical pathology, urinalysis, ophthalmology, electrocardiogram and vital signs. Capromorelin, GH and IGF-1 were measured in plasma samples collected at various time points during the study. At the end of the dosing period, dogs were humanely euthanized and necropsied. Selected organs were weighed and tissue samples collected and processed for microscopic examination.

GH = assay: One-year dog safety study: GH plasma levels; format: in vivo, Beagle dogs; conditions: dogs, Days 1, 170 and 351 following treatment
Method: as §1

[2] = Capromorelin efficacy in cats for 21 days: food consumption and bodyweight; format: in vivo; conditions: for mean food intake increase over baseline: Day 1 to Day 21 vs Days -3 to -1
Method: (§2) Thirty-two cats (16 neutered males, 16 females) were divided into 4 treatment groups including 4 animals of each sex per group. The cats were acclimated to the study environment for 10 days prior to study start. All cats were orally dosed with placebo (Group 1) or capromorelin (30 mg/ml oral solution, Formulation 9 as described above) at 1 mg/kg (Group 2), 2 mg/kg (Group 3) or 3 mg/kg (Group 4), for 21 days, with dosing starting on Day 1. Physical examinations were performed on Day −10 and general health observations made daily. Body weights were evaluated on Days −10, −8, −1, 1, 8, 15 and 22 days. Cats were fed about 1 hour after dosing. Commercial dry cat food (300 g) was provided for 5 hours and then removed and the amount of food consumed (g) calculated per cat. On Days 1, 14 and 21, blood samples were collected prior to daily dose administration and at 8 hours post-dose and serum processed for measurement of IGF-1 levels.
On Day 12, two study animals (one male each from Groups 1 and 4) were removed for reasons unrelated to the study and were not included in the data analysis. Cat 4M4 in the 3 mg/kg group lost significant weight during the first 8 days of treatment—then rebounded and began to gain the weight back. Statistical analysis for weight gain was completed with and without this cat's (4M4) data included.

IGF-1 [3] = assay: Capromorelin efficacy in cats for 21 days: serum IGF-1 levels; format: in vivo
Method: as §2

[4] = Two-week oral toxicity study in cats; format: in vivo
Method: This study determined the safety of capromorelin when administered orally to cats. Groups of 3 male and 3 female (n=6/group) mixed breed cats were given capromorelin as an oral capsule once daily at doses of 9, 15, 30 and 60 mg/kg for 14 consecutive days. A similar group was given microcrystalline cellulose as a placebo control. All animals were observed daily for clinical signs and assessed for food consumption, with bodyweights recorded 7 days before dosing and again at euthanasia. Other measurements included periodic clinical pathology evaluations of hematology, serum chemistry and urinalysis. After the dosing period, cats were euthanized and necropsied.

IGF-1 [5] = assay: Dose titration laboratory study (10 days): serum IGF-1; format: in vivo; conditions: cats
Method: This study defined a capromorelin oral solution dose regime that provides increased food intake and weight gain and the accompanying desired profile of IGF-1 serum levels. Laboratory adult cats were housed individually and divided into five groups (3/sex/group; n=6/group). Cats were dosed once daily for 10 consecutive days with either placebo, 1 mg/kg AT-002, 2 mg/kg AT-002, 3 mg/kg AT-002 or 4 mg/kg AT-002. The test article was a flavored solution formulation very similar to the final formulation. Study activities are summarized at Table 5.

IGF-1 [6] = assay: Laboratory cats modelling CKD safety pilot study: IGF-1 levels; format: in vivo; conditions: cats with compromised kidney function, 2 mg/kg subcutaneous injection for 14 days
Method: Sixteen cats with compromised kidney function were enrolled in the study and randomized to three groups. Animals assigned to Group 1 (n=6) were administered AT-002 once on Day 0 by intravenous catheter at a dose rate of 0.75 mg/kg per cat. Animals assigned to Group 2 (n=6) were administered the AT-002 daily for 14 days by subcutaneous injection at a dose rate of 2 mg/kg. Subcutaneous and intravenous treatment routes were used to assure that sufficient drug exposure occurred. Animals assigned to Group 3 (n=4) served as untreated controls.
Blood samples were collected for capromorelin and/or IGF-1 analysis from animals assigned to Group 1 on Study Day 0. Blood samples were also collected from animals assigned to Groups 2 and 3 on Study Days −1 and 13 (prior to dosing) for hematology and clinical chemistry analysis. Appetite was assessed by food intake and weight gain. Bodyweight measurements were performed on Days −7, −1 (all groups) and on Day 13 (Groups 2 and 3 only). Food intake was monitored from Day −7 to Day 13 inclusive for animals assigned to Groups 2 and 3. Animals were observed daily for clinical signs.

IGF-1 [7] = assay: Pilot clinical field study: IGF-1 serum levels; format: in vivo, cats
Method: The key variable for the determination of effectiveness was bodyweight. Other effectiveness variables measured included body condition score, muscle condition score, quality of life assessments (unvalidated) and owner appetite assessments (unvalidated). Safety was assessed by physical examinations, clinical pathology testing (hematology and serum chemistry), urinalysis, serum IGF-1 levels and adverse event monitoring.

SMILES: CN1N=C2CCN(C(=O)[C@@H](COCc3ccccc3)NC(=O)C(C)(C)N)C[C@@]2(Cc2ccccc2)C1=O.O=C(O)C(O)C(O)C(=O)O [capromorelin, N-[(2R)-1-[(3aR)-2-methyl-3-oxo-3a-(phenylmethyl)-6,7-dihydro-4H-pyrazolo[4,3-c]pyridin-5-yl]-1-oxo-3-(phenylmethoxy)propan-2-yl]-2-amino-2-methylpropanamide L-tartrate]
- pressure rate quotient (PRQ) interval, electrocardiogram ([1]; 52.4 mg/kg and 9.2 mg/kg groups, 1 to 2 hours following dosing): slight increases
- absolute liver weights ([1]; 52.4 mg/kg dose): Increased
- red blood cells, hemoglobin and hematocrit ([1]; 52.4 mg/kg group): slight deceases
- cholesterol, HDL and alkaline phosphatase serum levels ([1]; 52.4 mg/kg group compared to placebo): statistically significantly increased
- high dose relative to proposed clinical dose for dogs (safety margin) [1]: about 17.5 times
- high dose relative to proposed clinical dose for dogs (safety margin) ([1]; listed as Capromorelin): approximately 17.5 times
- hepatocellular cytoplasmic vacuolation ([1]; all capromorelin treated groups): slight increase
- clinical signs related to capromorelin ([1]; dogs, 12 months, noted sporadically): salivation and loose stool
- capromorelin plasma levels: accumulation ([1]; dogs, Days 90, 181 and 349): no accumulation of drug
- reddening/swollen paws ([1]; dogs, higher dose treatments): increased incidence
- tolerability / toxicity ([1]; dogs, 12 months): well-tolerated; also recorded: favorable toxicology
- tolerability / toxicity ([1]; dogs, 12 months, listed as Capromorelin): minimal toxicity
- effects on food consumption, bodyweight, ophthalmic exams, vital signs or gross pathology ([1]; dogs, up to 52.4 mg/kg daily, 12 months): no negative effects
- GH plasma levels (GH): increased modestly
- mean percent bodyweight change ([2]; 1 mg/kg (Group 2), Day 15): 4.24%
- mean percent bodyweight change ([2]; 1 mg/kg (Group 2), Day 22 (21-day exposure)): 5.41%
- mean food intake increase over baseline ([2]; 1 mg/kg oral (Group 2)): 25.32%
- mean percent bodyweight change ([2]; 2 mg/kg (Group 3), Day 8): 3.23%
- mean percent bodyweight change ([2]; 2 mg/kg (Group 3), Day 15): 5.97%
- mean percent bodyweight change ([2]; 2 mg/kg (Group 3), Day 22 (21-day exposure)): 6.61%
- mean food intake increase over baseline ([2]; 2 mg/kg oral (Group 3)): 45.67%
- mean food consumption change from baseline ([2]; 2 mg/kg, interval Day 8 through Day 14): 54.42%
- mean percent bodyweight change ([2]; 3 mg/kg (Group 4), 21-day exposure): 3.92%
- mean food intake increase over baseline ([2]; 3 mg/kg oral (Group 4)): 29.59%
- group mean serum IGF-1 increase from 0 to 8 hours post-dose (IGF-1 [3]; 1 mg/kg (Group 2), Day 1): 46.69%
- group mean serum IGF-1 increase from 0 to 8 hours post-dose (IGF-1 [3]; 1 mg/kg (Group 2), Day 14): 17.27%
- group mean serum IGF-1 increase from 0 to 8 hours post-dose (IGF-1 [3]; 1 mg/kg (Group 2), Day 21): 9.81%
- group mean serum IGF-1 increase from 0 to 8 hours post-dose (IGF-1 [3]; 2 mg/kg (Group 3), Day 1): 29.38%
- group mean serum IGF-1 increase from 0 to 8 hours post-dose (IGF-1 [3]; 2 mg/kg (Group 3), Day 14): 9.00%
- group mean serum IGF-1 increase from 0 to 8 hours post-dose (IGF-1 [3]; 2 mg/kg (Group 3), Day 21): 2.68%
- group mean serum IGF-1 increase from 0 to 8 hours post-dose (IGF-1 [3]; 3 mg/kg (Group 4), Day 1): 36.77%
- group mean serum IGF-1 increase from 0 to 8 hours post-dose (IGF-1 [3]; 3 mg/kg (Group 4), Day 14): 18.56%
- group mean serum IGF-1 increase from 0 to 8 hours post-dose (IGF-1 [3]; 3 mg/kg (Group 4), Day 21): 5.17%
- NOAEL at 14 days ([4]; both sexes, mixed breed, cat, in vivo, cats, oral capsule once daily, 14 days, read-out: no-observed-adverse-effect-level (NOAEL)): 15 mg/kg/day
- 30 mg/kg dose level relative to proposed clinically effective dose ([4]; cats): 15 times
- clinical pathology changes ([4]; cats, 15 to 60 mg/kg dosing groups, sporadic): increases in serum and urine glucose
- clinical signs related to capromorelin ([4]; cats, 30 and 60 mg/kg treatment groups): emesis, sporadic salivation, and lethargy/depression
- tissue findings at necropsy (gross and microscopic) ([4]; cats, 14 days): not associated with any abnormal tissue findings
- tolerability ([4]; cats, oral capsule 9, 15, 30 and 60 mg/kg, 14 days): well tolerated
- mean absolute and relative liver weights ([4]; females 30 and 60 mg/kg, absolute liver weights in males at all dosages): increased
- time of initial IGF-1 response (increase) (IGF-1 [5]; following treatment, Days 1 and 10): about 4 hours
- duration of elevated IGF-1 levels post-dose (IGF-1 [5]; once-a-day dosing): 24 h
- time to maximum relatively steady IGF-1 level (IGF-1 [5]; post-dose, Days 1 and 10): ≤ 8 h
- IGF-1 levels (IGF-1 [6]): sustained increase
- IGF-1 Serum Levels, Mean Levels (SEM) (IGF-1 [7]; 2 mg/kg once daily, Day 30): 855.60 ± 72.74 ng/mL
- IGF-1 Serum Levels, Change over baseline (Day 0) (IGF-1 [7]; 2 mg/kg once daily, Day 30, L-tartrate): 274.60 ± 49.06 ng/mL
- IGF-1 Serum Levels, Change over baseline (Day 0) (IGF-1 [7]; 2 mg/kg once daily, Day 60): 195.64 ± 40.70 ng/mL
- IGF-1 Serum Levels, Mean Levels (SEM) (IGF-1 [7]; 2 mg/kg once daily, Day 60): 752.55 ± 56.89 ng/mL
- IGF-1 Serum Levels, Change over baseline (Day 0) (IGF-1 [7]; 2 mg/kg once daily, Day 90): 163.82 ± 52.74 ng/mL
- IGF-1 Serum Levels, Mean Levels (SEM) (IGF-1 [7]; 2 mg/kg once daily, Day 90): 720.73 ± 65.70 ng/mL
- IGF-1 Serum Levels, Mean Levels (SEM) (IGF-1 [7]; capromorelin group, Day 0 (baseline)): 556.91 ± 64.30 ng/mL
